Measurements: article PMC5607459, “Discovery of a Potent Inhibitor Class with High Selectivity toward Clostridial Collagenases” (Journal of the American Chemical Society, 2017)
Entries after “also recorded” stand apart in the source; their conditions may differ. Read-outs that look alike come from different tables or passages of the source. Non-standard residues stand in square brackets, D forms with d. Residues, ends and D or L forms follow the SMILES beside them. *: point of attachment. Dnp = O=[N+]([O-])c1ccc(*)c([N+](=O)[O-])c1; Mca = COc1ccc2c(CC(=O)*)cc(=O)oc2c1; Dap = NC[C@H](N)C(=O)O

Assays:
[1] = biological target: ColT-PD (Clostridium tetani, UniProt Q899Y1); test: biochemical; parameters: species or system C. tetani; conditions: for remaining activity at 100 µM: read-out: residual activity of ColT
[2] = biological target: T1, ColH-PD (Hathewaya histolytica, UniProt Q46085); test: biochemical; format: binding, Clostridium histolyticum
[3] = biological target: T1, ColH-PD
[4] = biological target: ColQ1-CU (Bacillus cereus, UniProt B9J3S4); test: biochemical; parameters: species or system Bacillus cereus strain Q1; conditions: for remaining activity at 100 µM: read-out: residual activity of ColQ1
[5] = tested on: MMP-1, -2, -3, -7, -8, and -14; test: Human MMP inhibition assay, statements on the whole panel; format: biochemical; conditions: for inhibition of the tested MMPs: tested at 100 µM
[6] = biological target: T1, ColH-PD; test: biochemical
[7] = biological target: ColG-CU (Hathewaya histolytica, UniProt Q9X721); test: biochemical; parameters: species or system C. histolyticum; conditions: for remaining activity at 100 µM: read-out: residual activity of ColG
[8] = physchem; conditions: buffer, pH 7.5
[9] = 10 mM Hepes pH 7.4 (10% methanol) at 22.5°C, experimental time frame
[10] = tested on: HEP G2 cells; conditions: human
[11] = tested on: LasB; format: biochemical, P. aeruginosa
[12] = tested on: HEP G2 cells; test: Cytotoxicity assay; conditions: 48 h
[13] = biological target: T1, ColH-PD; remark: listed apart in the source
[14] = biological target: catalytic domain of MMP-7 (Homo sapiens, UniProt P09237); test: biochemical
[15] = biological target: T2, catalytic domain of MMP-2 (Homo sapiens, UniProt P08253); test: Human MMP inhibition assay, MMP-2; format: biochemical; conditions: 100 μM compound
T2 construct: The catalytic domains of MMP-1, -2, -3, -7, -8 and -14; purchased AnaSpec (Fremont, CA, USA)

[16] = biological target: amine-coupled peptidase domain of ColH (ColH-PD) (Hathewaya histolytica, UniProt Q46085)
amine-coupled peptidase domain of ColH (ColH-PD), sequence (Q46085 331-721 limits assumed): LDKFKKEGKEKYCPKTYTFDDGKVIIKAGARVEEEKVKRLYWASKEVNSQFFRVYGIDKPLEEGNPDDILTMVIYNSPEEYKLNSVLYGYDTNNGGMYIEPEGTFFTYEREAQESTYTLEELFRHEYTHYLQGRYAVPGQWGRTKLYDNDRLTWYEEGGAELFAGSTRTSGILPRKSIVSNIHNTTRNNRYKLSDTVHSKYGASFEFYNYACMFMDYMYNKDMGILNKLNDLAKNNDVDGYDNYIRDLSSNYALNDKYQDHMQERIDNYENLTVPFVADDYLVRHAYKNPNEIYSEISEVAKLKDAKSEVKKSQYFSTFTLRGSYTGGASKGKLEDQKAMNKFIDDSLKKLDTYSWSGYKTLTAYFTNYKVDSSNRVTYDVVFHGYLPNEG

T1 sequence (Q46085 331-721 limits assumed): as above
ColQ1-CU, sequence (B9J3S4 94-765 limits assumed): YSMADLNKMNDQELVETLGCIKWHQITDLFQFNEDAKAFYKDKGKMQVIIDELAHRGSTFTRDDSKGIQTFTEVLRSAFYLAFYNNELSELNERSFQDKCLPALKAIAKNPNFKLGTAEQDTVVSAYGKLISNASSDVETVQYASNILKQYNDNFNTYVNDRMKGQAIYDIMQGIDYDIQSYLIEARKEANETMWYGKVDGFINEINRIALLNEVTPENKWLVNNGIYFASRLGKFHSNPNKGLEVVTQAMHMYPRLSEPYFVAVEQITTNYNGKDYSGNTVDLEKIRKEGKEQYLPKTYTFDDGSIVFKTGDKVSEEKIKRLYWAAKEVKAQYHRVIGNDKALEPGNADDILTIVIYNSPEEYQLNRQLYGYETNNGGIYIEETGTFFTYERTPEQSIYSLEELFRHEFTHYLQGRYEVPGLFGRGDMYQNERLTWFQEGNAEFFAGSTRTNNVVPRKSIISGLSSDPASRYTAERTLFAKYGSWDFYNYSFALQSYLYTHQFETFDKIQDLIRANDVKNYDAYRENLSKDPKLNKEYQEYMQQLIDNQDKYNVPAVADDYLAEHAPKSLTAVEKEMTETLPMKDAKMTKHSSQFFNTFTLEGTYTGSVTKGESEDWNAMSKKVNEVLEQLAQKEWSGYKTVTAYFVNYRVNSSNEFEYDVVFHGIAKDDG
ColG-CU, sequence (Q9X721 111-786): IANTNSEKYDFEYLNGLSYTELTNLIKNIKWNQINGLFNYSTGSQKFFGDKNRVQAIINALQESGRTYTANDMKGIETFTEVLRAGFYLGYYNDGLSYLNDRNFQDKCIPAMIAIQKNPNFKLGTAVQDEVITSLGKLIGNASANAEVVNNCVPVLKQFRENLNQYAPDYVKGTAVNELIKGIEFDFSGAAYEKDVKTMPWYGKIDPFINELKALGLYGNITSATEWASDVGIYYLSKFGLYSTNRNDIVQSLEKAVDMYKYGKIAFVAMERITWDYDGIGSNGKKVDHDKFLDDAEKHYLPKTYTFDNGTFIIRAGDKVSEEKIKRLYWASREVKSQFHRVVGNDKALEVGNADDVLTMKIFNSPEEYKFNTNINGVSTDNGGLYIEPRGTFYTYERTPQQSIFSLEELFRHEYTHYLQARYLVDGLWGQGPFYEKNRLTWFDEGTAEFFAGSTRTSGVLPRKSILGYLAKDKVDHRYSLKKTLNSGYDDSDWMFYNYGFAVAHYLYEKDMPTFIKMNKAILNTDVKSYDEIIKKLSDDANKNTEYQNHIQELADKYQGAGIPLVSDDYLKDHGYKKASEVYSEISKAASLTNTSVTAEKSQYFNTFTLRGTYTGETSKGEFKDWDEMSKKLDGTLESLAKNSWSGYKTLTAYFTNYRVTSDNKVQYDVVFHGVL
ColT-PD, sequence (Q899Y1 340-731 limits assumed): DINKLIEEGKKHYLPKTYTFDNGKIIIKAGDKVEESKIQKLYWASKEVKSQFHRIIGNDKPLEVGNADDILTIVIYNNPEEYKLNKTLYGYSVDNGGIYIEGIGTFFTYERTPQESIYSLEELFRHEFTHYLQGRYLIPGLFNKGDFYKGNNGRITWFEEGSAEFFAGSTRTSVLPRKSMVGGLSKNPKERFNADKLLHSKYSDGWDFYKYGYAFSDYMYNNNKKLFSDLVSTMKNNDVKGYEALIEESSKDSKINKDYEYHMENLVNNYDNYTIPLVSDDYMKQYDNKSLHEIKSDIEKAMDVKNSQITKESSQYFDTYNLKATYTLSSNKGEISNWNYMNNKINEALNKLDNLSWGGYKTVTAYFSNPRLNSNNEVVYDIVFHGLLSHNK
T2 sequence (P08253 110-465 limits assumed): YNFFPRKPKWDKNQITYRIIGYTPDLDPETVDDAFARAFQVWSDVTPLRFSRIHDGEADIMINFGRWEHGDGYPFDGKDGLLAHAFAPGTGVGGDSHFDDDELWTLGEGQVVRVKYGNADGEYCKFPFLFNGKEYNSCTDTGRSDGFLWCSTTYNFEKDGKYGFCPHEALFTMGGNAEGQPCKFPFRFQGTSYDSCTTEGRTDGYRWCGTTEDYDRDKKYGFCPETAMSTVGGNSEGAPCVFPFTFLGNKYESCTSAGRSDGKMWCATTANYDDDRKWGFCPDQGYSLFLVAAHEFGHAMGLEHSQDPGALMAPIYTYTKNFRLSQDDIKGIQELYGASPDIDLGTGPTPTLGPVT
catalytic domain of MMP-7, sequence (P09237 95-267): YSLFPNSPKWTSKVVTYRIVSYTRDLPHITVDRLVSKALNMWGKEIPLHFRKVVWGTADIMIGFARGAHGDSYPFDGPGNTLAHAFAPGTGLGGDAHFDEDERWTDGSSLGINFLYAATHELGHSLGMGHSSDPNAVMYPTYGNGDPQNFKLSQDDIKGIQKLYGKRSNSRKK

Q: Which results are given for `NC(=O)SCC(=O)Nc1ccc(Cl)cc1` [Compound 7]?
A: remaining activity at 100 µM [1]: ≤ 5%; Kd [2]: 309 ± 45 nM; N (stoichiometry) [2]: 0.54 ± 0.05; ΔG [2]: –8.9 ± 0.1 kcal mol^–1; ΔH [2]: –12.7 ± 1.2 kcal mol^–1; –TΔS [2]: 3.8 ± 1.3 kcal mol^–1; decrease in IC50 compared to meta-chloro-substituted counterpart 9 [3]: 100 fold; remaining activity at 100 µM [4]: ≤ 5%; selectivity for ColH over MMPs [5]: more than 1000 fold; inhibition of the tested MMPs [5]: no or negligible inhibition; IC50 [6]: 190 ± 20 nM; remaining activity at 100 µM [7]: ≤ 5%; half-life [8]: 26.8 ± 1.4 min

Q: With `Cc1ccc(NC(=O)CSC(N)=O)cc1C` [Compound 2] as the molecule, how does the IC50 [6] read?
A: 1900 ± 300 nM

Q: What about the inhibition at 40 µM ([6]; read-out: inhibition of ColH-PD) of the same molecule?
A: 82 ± 3%

Q: Which “hydrolysis to the corresponding free thiol 13” value [9] does the source give for `CCN(CC)C(=S)SCC(=O)Nc1ccc(C(C)=O)cc1` [Compound 21] here?
A: no hydrolysis

Q: What about the inhibition at 100 µM ([6]; read-out: Inhibition at 100 μM (%)) of the same molecule?
A: 12 ± 3%

Q: Which “reduction of viability (%)” value [10] does the source give for `CC(=O)c1ccc(NC(=O)CS)cc1` [Compound 13] here?
A: 17 ± 12%

Q: And the “selectivity against MMPs” value [5]?
A: similarly high selectivity against MMPs

Q: And the “lower activity toward LasB compared to ColH” value [11]?
A: more than 1000 fold

Q: Which “decreased IC50 compared to compound 2” value [3] does the source give for `Cc1ccc(NC(=O)CSC(N)=O)cc1` [Compound 6] here?
A: 16 fold

Q: And the IC50 [6]?
A: 120 ± 10 nM

Q: For `COc1cccc2c1C(=O)c1c(O)c3c(c(O)c1C2=O)C[C@@](O)(C(=O)CO)C[C@@H]3O[C@H]1C[C@H](N)[C@H](O)[C@H](C)O1` [doxorubicin], which “reduction of viability (%)” value ([12]; 1 μM) is on record?
A: 50 ± 5%

Q: For `CCOc1ccc(NC(=O)CSC(N)=O)cc1` [Compound 8], which IC50 [6] is on record?
A: 190 ± 30 nM

Q: Which IC50 [6] does the source give for `NC(=O)SCC(=O)Nc1cccc(Cl)c1` [Compound 9] here?
A: 19000 ± 3000 nM

Q: Which “Inhibition at 100 μM (%)” value [3] does the source give for `CCN(CC)C(=S)SCC(=O)Nc1ccc(Br)cc1` [Compound 18] here?
A: no inhibition

Q: Which “reduction of viability (%)” value ([12]; 100 μM) does the source give for `CO[C@H]1/C=C/O[C@@]2(C)Oc3c(C)c(O)c4c(O)c(c(/C=N/N5CCN(C)CC5)c(O)c4c3C2=O)NC(=O)/C(C)=C\C=C\[C@H](C)[C@H](O)[C@@H](C)[C@@H](O)[C@@H](C)[C@H](OC(C)=O)[C@@H]1C` [rifampicin] here?
A: 29 ± 5%

Q: With `COc1ccc(NC(=O)CSC(N)=O)cc1` [Compound 5] as the molecule, how does the IC50 [6] read?
A: 71 ± 9 nM

Q: Which “inhibition of ColH-PD” value ([3]; 40 µM) does the source give for “isoamylphosphonyl-Gly-Pro-Ala [reference compound]” here?
A: 81 ± 1%

Q: With `NC(=O)SCC(=O)Nc1ccccc1Cl` [Compound 12] as the molecule, how does the IC50 [6] read?
A: 31000 ± 7000 nM

Q: And the half-life [8]?
A: 20.6 ± 0.9 min

Q: For `CCN(CC)C(=S)SCC(=O)Nc1ccc(C(C)C)cc1` [Compound 19], which “Inhibition at 100 μM (%)” value [3] is on record?
A: no inhibition

Q: Which “Inhibition at 100 μM (%)” value [3] does the source give for `CCN(CC)C(=S)SCC(=O)Nc1ccc(F)cc1` [Compound 20] here?
A: no inhibition

Q: With `O=C(CS)Nc1ccccc1Cl` [Compound 15] as the molecule, how does the IC50 [6] read?
A: 40000 ± 9000 nM

Q: With `CCOc1ccc(NC(=O)CSC(=S)N(CC)CC)cc1` [Compound 17] as the molecule, how does the “Inhibition at 100 μM (%)” value [3] read?
A: no inhibition

Q: Which Km [13] does the source give for `COc1ccc2c(CC(=O)N[C@@H](C)C(=O)NCC(=O)N3CCC[C@H]3C(=O)N3CCC[C@H]3C(=O)NCC(=O)N3CCC[C@H]3C(=O)N[C@@H](CNc3ccc([N+](=O)[O-])cc3[N+](=O)[O-])C(=O)NCC(=O)N[C@@H](CCCNC(=N)N)C(N)=O)cc(=O)oc2c1` [Mca-Ala-Gly-Pro-Pro-Gly-Pro-Dpa-Gly-Arg-NH2] (Mca-AGPPGP[Dap](Dnp)GR-NH2) here?
A: 62 ± 8 µM

Q: For `NC(=O)SCC(=O)Nc1cccc(F)c1` [Compound 10], which IC50 [6] is on record?
A: 23000 ± 3000 nM

Q: Which results are given for `CNC(=O)[C@H](Cc1ccccc1)NC(=O)[C@H](CC(C)C)[C@H](CSc1cccs1)C(=O)NO` [batimastat, reference compound]?
A: reduction of viability (%) ([10]; 48 h, 100 μM): 13 ± 7%; inhibition of ColT-PD [1]: inhibited; inhibition of ColH-PD [3]: inhibited; inhibition of ColQ1-CU [4]: inhibited; IC50 [14]: 7 ± 0.2 nM; IC50 ([5]; MMP-1, -2, -3, -7, -8, -14, read-out: IC50 values for all of these MMPs): < 10 nM; inhibition of ColG-CU [7]: inhibited

Q: With `CC(=O)c1ccc(NC(=O)CSC(N)=O)cc1` [Compound 3] as the molecule, how does the inhibition at 100 µM [15] read?
A: 25%

Q: What about the remaining activity at 100 µM [1] of the same molecule?
A: ≤ 5%

Q: And the remaining activity at 100 µM [4]?
A: ≤ 5%

Q: What about the “selectivity for ColH over MMPs” value [5] of the same molecule?
A: more than 1000 fold

Q: And the “inhibition of the tested MMPs” value [5]?
A: no or negligible inhibition

Q: And the remaining activity at 100 µM ([6]; read-out: residual activity of ColH-PD)?
A: < 10%

Q: What about the remaining activity at 100 µM [7] of the same molecule?
A: ≤ 5%

Q: Which IC50 [6] does the source give for `NC(=O)SCC(=O)Nc1ccccc1` [Compound 1] here?
A: 25000 ± 6000 nM

Q: With `NC(=O)CCC(=O)Nc1ccccc1` [Compound 16] as the molecule, how does the “inhibitory activity toward ColH-PD” value [3] read?
A: devoid of any activity; also recorded: no inhibition

Q: Which IC50 [6] does the source give for `COC(=O)c1ccc(NC(=O)CSC(N)=O)cc1` [Compound 4] here?
A: 44 ± 7 nM

Q: For `O=C(CS)Nc1ccc(Cl)cc1` [Compound 14], which “reduction of viability (%)” value [10] is on record?
A: 28 ± 12%

Q: And the Kd [2]?
A: 360 ± 38 nM

Q: What about the “N (stoichiometry)” value [2] of the same molecule?
A: 0.48 ± 0.03

Q: What about the ΔG [2] of the same molecule?
A: –8.8 ± 0.1 kcal mol^–1

Q: And the ΔH [2]?
A: –15.4 ± 0.3 kcal mol^–1

Q: And the “–TΔS” value [2]?
A: 6.6 ± 0.4 kcal mol^–1

Q: What about the “selectivity against MMPs” value [5] of the same molecule?
A: similarly high selectivity against MMPs

Q: And the IC50 [6]?
A: 210 ± 10 nM

Q: Which “MW-normalized SPR response” value [16] does the source give for “N-(3-[2-furyl]acryloyl)-L-leucyl-glycyl-L-prolyl-L-alanine [FALGPA]” here?
A: 35 μ-refractive index units
